Among the data in patent publication US20100075957A1, “AMINODIHYDROTHIAZINE DERIVATIVES SUBSTITUTED WITH A CYCLIC GROUP” (SHIONOGI & CO., LTD., priority 2007, published 2010) are IC50 values, retold here.

The target in one experiment is T1, Recombinant human BACE-1 (Homo sapiens, UniProt P56817).
T1 construct: purchased R&D Systems
T1 sequence (P56817 46-501): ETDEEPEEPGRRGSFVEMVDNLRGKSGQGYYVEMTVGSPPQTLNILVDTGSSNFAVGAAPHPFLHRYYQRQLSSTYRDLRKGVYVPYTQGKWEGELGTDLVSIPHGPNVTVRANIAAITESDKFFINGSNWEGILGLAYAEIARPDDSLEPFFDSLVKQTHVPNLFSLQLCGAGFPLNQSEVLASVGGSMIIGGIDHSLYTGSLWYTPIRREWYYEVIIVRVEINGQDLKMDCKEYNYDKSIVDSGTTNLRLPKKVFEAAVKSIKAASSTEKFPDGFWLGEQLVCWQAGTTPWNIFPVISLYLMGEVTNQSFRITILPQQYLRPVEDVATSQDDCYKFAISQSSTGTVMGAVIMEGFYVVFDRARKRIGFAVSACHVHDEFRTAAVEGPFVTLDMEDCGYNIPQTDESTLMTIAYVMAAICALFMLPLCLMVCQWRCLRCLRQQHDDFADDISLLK
As to the kind of experiment: Assay of β-secretase-inhibiting activity.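 Note: substrate is a peptide carrying biotin and europium cryptate, after the enzyme reaction, Streptavidin-XL665 is added and incubated 1 h at 30 °C before fluorescence reading.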 Type of experiment: biochemical. The note with it: Recombinant human BACE-1 7.4 nM, substrate peptide 18 nM, pH 5.0, 30° C., 3 hours; Table 139; read-out: IC50.
For the compound `CC#CC(=O)Nc1cccc([C@]2(C)CCSC(N)=N2)c1` [Compound 65], the IC50 came out at 720 nM. On the same count and under the same terms, under `Cc1cc(C(=O)Nc2cccc([C@]3(C)CCSC(N)=N3)c2)c(C)s1` [Compound 11] stands 170 nM; under `C[C@@]1(c2cc(NC(=O)c3ccc(Br)s3)ccc2F)CCSC(N)=N1` [Compound 41], 150 nM. `C=C(C)COc1cnc(C(=O)Nc2cccc([C@]3(C)CCSC(N)=N3)c2)cn1` [Compound 109]: the IC50 was 100 nM. As to `C=CCCOc1cnc(C(=O)Nc2cccc([C@]3(C)CCSC(N)=N3)c2)cn1` [Compound 86], the IC50 worked out at 190 nM.

Still in this experiment, the particulars now being: Recombinant human BACE-1 7.4 nM, substrate peptide 18 nM, pH 5.0, 30° C., 3 hours; Table 140; read-out: IC50.
For `CC(=O)c1ccc(C(=O)Nc2ccc(F)c([C@]3(C)CCSC(N)=N3)c2)s1` [Compound 530], the IC50 turned out to be 90 nM. Same read-out and setting: the result for `Cn1cc(-c2cnc(C(=O)Nc3ccc(F)c([C@]4(C)CCSC(N)=N4)c3)cn2)cn1` [Compound 494] reads 30 nM.

Consider `Cc1cnc(C(=O)Nc2cc([C@]3(C)CCSC(N)=N3)c3oc(C)cc3c2)cn1` [Compound 468], for which the IC50 came out at 20 nM.

As for `C[C@@]1(c2cc(NC(=O)c3nc4cnccc4[nH]3)ccc2F)CCSC(N)=N1` [Compound 484], the IC50 was found to be 290 nM. Still for that read-out and setting: under `Cc1cncc(C(=O)Nc2ccc(F)c([C@]3(C)CCSC(N)=N3)c2)n1` [Compound 585] stands 60 nM; under `Cc1cc(C(=O)Nc2ccc(F)c([C@]3(C)CCSC(N)=N3)c2)nn1C` [Compound 488], 260 nM; under `Cc1cnn(-c2cnc(C(=O)Nc3ccc(F)c([C@]4(C)CCSC(N)=N4)c3)cn2)c1` [Compound 577], 30 nM.

For `C[C@@]1(c2cc(NC(=O)c3cc4nccnc4s3)ccc2F)CCSC(N)=N1` [Compound 521], the IC50 came out at 180 nM. Consider `Cc1cc2cc(NC(=O)c3ccc(OCCO)cn3)cc([C@]3(C)CCSC(N)=N3)c2o1` [Compound 464], for which the IC50 was 430 nM. Same read-out and setting: under `C[C@@]1(c2cc(NC(=O)c3ccc(OCC#CCN)cn3)ccc2F)CCSC(N)=N1` [Compound 566] stands 180 nM.

The experiment is the same for the next values; noted with them: Recombinant human BACE-1 7.4 nM, substrate peptide 18 nM, pH 5.0, 30° C., 3 hours; Table 141; read-out: IC50.
With `C[C@@]1(c2cc(NC(=O)c3cnc(NCC(F)(F)F)cn3)ccc2F)CCSC(N)=N1` [Compound 702], the IC50 amounted to 160 nM. As to `COc1cnc(C(=O)Nc2ccc(F)c([C@@]3(C)N=C(N)SCC3=O)c2)cn1` [Compound 689], the IC50 came to 40 nM. Regarding `C[C@]1(c2cc(NC(=O)c3ncccc3F)ccc2F)N=C(N)SCC1(F)F` [Compound 660], the IC50 was determined as 110 nM.

Staying with this experiment, now noted: Recombinant human BACE-1 7.4 nM, substrate peptide 18 nM, pH 5.0, 30° C., 3 hours; time-resolved fluorescence ratio 665/620; read-out: IC50 values (50% inhibitory concentration against the enzymatic activity).
`C#CCOc1cnc(C(=O)Nc2ccnc([C@]3(C)CCSC(N)=N3)c2)cn1` [Compound 659]: the IC50 was at most 1000 nM. As to `CC#CCNc1cnc(C(=O)Nc2ccc(F)c([C@]3(C)CCSC(N)=N3)c2)cn1` [Compound 120], the IC50 was at most 1000 nM. In the case of `C[C@@]1(c2cncc(NC(=O)c3ncc(C(F)(F)F)cc3Cl)c2)CCSC(N)=N1` [Compound 574], the IC50 was at most 1000 nM.

As to `COc1cnc(C(=O)Nc2ccnc([C@]3(C)CC(C)(C)SC(N)=N3)c2)c(C)c1` [Compound 685], the IC50 was at most 1000 nM. The same measure, in the same setting: the result for `C[C@@]1(c2cc(NC(=O)c3cnc4ccccc4n3)ccc2F)CCSC(N)=N1` [Compound 666] reads at most 1000 nM; that for `Cc1cc(C(=O)Nc2ccc(F)c([C@]3(C)CCSC(N)=N3)c2)ns1` [Compound 507], at most 1000 nM; that for `COc1cnc(C(=O)Nc2ccnc([C@]3(C)CCSC(N)=N3)c2)c(C)c1` [Compound 679], at most 1000 nM.

Take `CC1(C)C[C@@](C)(c2cc(NC(=O)c3cnc(OCCF)cn3)ccn2)N=C(N)S1` [Compound 658]: the IC50 is at most 1000 nM.

In the case of `CCOc1cnc(C(=O)Nc2ccc(F)c([C@]3(C)CCSC(N)=N3)c2)c(OCC)c1` [Compound 528], the IC50 is at most 1000 nM. The same measure, in the same setting: under `Cc1cc(C(=O)Nc2cncc([C@]3(C)CCSC(N)=N3)c2)n(C(C)(C)C)n1` [Compound 466] stands at most 1000 nM; under `C#Cc1cn2cc(C(=O)Nc3ccnc([C@]4(C)CCSC(N)=N4)c3)ncc2n1` [Compound 700], at most 1000 nM. Consider `COc1cnc(C(=O)Nc2ccc(F)c([C@]3(C)CCSC(N)=N3)c2)c(C)c1` [Compound 602], for which the IC50 was at most 1000 nM. On the same count and under the same terms, the result for `COc1cnc(C(=O)Nc2ccnc([C@]3(C)CC(C)(C)SC(N)=N3)c2)c(N)n1` [Compound 688] reads at most 1000 nM; that for `C[C@@]1(c2cc(NC(=O)c3c[nH]nc3C3CC3)ccc2F)CCSC(N)=N1` [Compound 499], at most 1000 nM; that for `Cn1nc(C(F)(F)F)cc1C(=O)Nc1cccc([C@]2(C)CCSC(N)=N2)c1` [Compound 4], at most 1000 nM.

In the case of `Cc1cnc(C(=O)Nc2ccnc([C@]3(C)CC(C)(C)SC(N)=N3)c2)cn1` [Compound 653], the IC50 is at most 1000 nM. Take `Cc1cn(-c2cnc(C(=O)Nc3ccc(F)c([C@]4(C)CCSC(N)=N4)c3)cn2)cn1` [Compound 578]: the IC50 was at most 1000 nM. In the case of `COc1cnc(C(=O)Nc2cncc([C@]3(C)CCSC(N)=N3)c2)cn1` [Compound 547], the IC50 is at most 1000 nM.

Turning to `Cn1ccnc1C(=O)Nc1ccc(F)c([C@]2(C)CCSC(N)=N2)c1` [Compound 553], the IC50 is at most 1000 nM.

In the case of `C[C@@]1(c2cc(NC(=O)c3ncc(Cl)cc3Cl)ccn2)CCSC(N)=N1` [Compound 677], the IC50 was at most 1000 nM. Turning to `COc1cc(C(=O)Nc2ccc(F)c([C@]3(C)CCSC(N)=N3)c2)on1` [Compound 22], the IC50 is at most 1000 nM. Still for that read-out and setting: under `COCCOc1cnc(C(=O)Nc2cncc([C@]3(C)CC(C)(C)SC(N)=N3)c2)cn1` [Compound 562] stands at most 1000 nM; under `COc1cnc(C(=O)Nc2ccc(F)c([C@]3(C)CC(C)(C)SC(N)=N3)c2)cn1` [Compound 600], at most 1000 nM.

Take `C[C@@]1(c2cc(NC(=O)c3ccc(OC(F)F)cn3)ccc2F)CCSC(N)=N1` [Compound 135]: the IC50 is at most 1000 nM. Still for that read-out and setting: the result for `Cc1cscc1-c1cnc(C(=O)Nc2ccc(F)c([C@]3(C)CCSC(N)=N3)c2)cn1` [Compound 541] reads at most 1000 nM; that for `C[C@@]1(c2cncc(NC(=O)c3ccc(Cl)s3)c2)CCSC(N)=N1` [Compound 504], at most 1000 nM; that for `C#CCOc1cnc(C(=O)Nc2cccc([C@]3(C)CC(C)(C)SC(N)=N3)c2)cn1` [Compound 693], at most 1000 nM. Take `C[C@@]1(c2cncc(NC(=O)c3ncc(Cl)cc3Cl)c2)CCSC(N)=N1` [Compound 572]: the IC50 was at most 1000 nM. Still for that read-out and setting: under `CC(C)=CCOc1ccc(C(=O)Nc2cccc([C@]3(C)CCSC(N)=N3)c2)nc1` [Compound 98] stands at most 1000 nM; under `C[C@@]1(c2cc(NC(=O)c3ncc(Cl)cc3Cl)ccc2F)CCSC(N)=N1` [Compound 690], at most 1000 nM.

As to `Cc1cc(C(=O)Nc2cncc([C@]3(C)CCSC(N)=N3)c2)c(C)o1` [Compound 482], the IC50 was at most 1000 nM. For `COc1cnc(C(=O)Nc2cncc([C@]3(C)CC(C)(C)SC(N)=N3)c2)c(N)n1` [Compound 558], the IC50 is at most 1000 nM. On to `CC#CCOc1cnc(C(=O)Nc2cc(F)c(F)c(C3(C)CCSC(N)=N3)c2)cn1` (stereo not drawn) [Compound 145], for which the IC50 was at most 1000 nM. The same measure, in the same setting: under `C[C@@]1(c2cc(NC(=O)c3cccc(F)n3)ccc2F)CCSC(N)=N1` [Compound 587] stands at most 1000 nM; under `CC(C)c1nnsc1C(=O)Nc1ccc(F)c(C2(C)CCSC(N)=N2)c1` (stereo not drawn) [Compound 520], at most 1000 nM.

As for `C[C@@]1(c2cc(NC(=O)c3cnc(-c4ccoc4)cn3)ccc2F)CCSC(N)=N1` [Compound 158], the IC50 is at most 1000 nM. As for `C[C@@]1(c2cc(NC(=O)c3cnc(NCC(F)(F)F)cn3)ccc2F)CCSC(N)=N1` [Compound 702], the IC50 was at most 1000 nM. Take `C[C@@]1(c2cc(NC(=O)c3ccc(OCC#CCCl)cn3)ccc2F)CCSC(N)=N1` [Compound 573]: the IC50 is at most 1000 nM. Regarding `COc1cnc(C(=O)Nc2ccnc([C@]3(C)CCSC(N)=N3)c2)cn1` [Compound 548], the IC50 was at most 1000 nM. For `C#CCOc1cnc(C(=O)Nc2ccnc([C@]3(C)CC(C)(C)SC(N)=N3)c2)cn1` [Compound 657], the IC50 was at most 1000 nM.

Turning to `C[C@@]1(c2cncc(NC(=O)c3ncc(C(F)(F)F)cc3F)c2)CCSC(N)=N1` [Compound 646], the IC50 was at most 1000 nM. Turning to `C[C@@]1(c2cccc(NC(=O)c3cnc(OCCC(F)(F)F)cn3)c2)CCSC(N)=N1` [Compound 89], the IC50 was at most 1000 nM. For `COc1cnc(C(=O)Nc2ccc(F)c([C@@]3(C)N=C(N)SCC34CC4)c2)cn1` [Compound 675], the IC50 is at most 1000 nM.

Consider `Cc1csc(C(=O)Nc2ccc(F)c([C@]3(C)CCSC(N)=N3)c2)c1` [Compound 533], for which the IC50 was at most 1000 nM. On the same count and under the same terms, the result for `CC1(C)C[C@@](C)(c2cncc(NC(=O)c3ncc(C(F)(F)F)cc3Cl)c2)N=C(N)S1` [Compound 575] reads at most 1000 nM; that for `C[C@@]1(c2cc(NC(=O)c3cc4cc(C(F)(F)F)ccc4s3)ccc2F)CCSC(N)=N1` [Compound 546], at most 1000 nM; that for `COc1cnc(C(=O)Nc2cncc([C@]3(C)CC(C)(C)SC(N)=N3)c2)cn1` [Compound 560], at most 1000 nM. Same read-out and setting: under `Cc1nc(C(=O)Nc2ccc(F)c([C@]3(C)CC(C)(C)SC(N)=N3)c2)co1` [Compound 609] stands at most 1000 nM; under `CC#CCOc1cnc(C(=O)Nc2cncc([C@]3(C)CCSC(N)=N3)c2)cn1` [Compound 595], at most 1000 nM. `Cc1cnc(C(=O)Nc2cc(F)c(F)c(C3(C)CCSC(N)=N3)c2)cn1` (stereo not drawn) [Compound 143]: the IC50 is at most 1000 nM.

Regarding `C[C@@]1(c2cc(NC(=O)c3ccc(Cl)nn3)ccc2F)CCSC(N)=N1` [Compound 490], the IC50 was at most 1000 nM. Regarding `CC(C)=NOc1cnc(C(=O)Nc2cccc([C@]3(C)CCSC(N)=N3)c2)cn1` [Compound 113], the IC50 is at most 1000 nM.

For the compound `CSc1cnc(C(=O)Nc2cccc([C@]3(C)CCSC(N)=N3)c2)cn1` [Compound 69], the IC50 is at most 1000 nM. Turning to `COc1cnc(C(=O)Nc2cncc([C@]3(C)CCSC(N)=N3)c2)c(C)c1` [Compound 564], the IC50 is at most 1000 nM.
